Some test systems named below: NCI/ADR-RES ovarian; HCT-15 colon; COLO 205 colon; OVCAR-3 ovarian; U251 CNS; HT29 colon; UO-31 renal; SK-MEL-2 melanoma; HOP-92 NSCLC; RXF 393 renal; K-562 leukemia; OVCAR-8 ovarian; SR leukemia.
Holding throughout (test): NCI anticancer screen, dose series, 48 h

This is an account of results in PubChem BioAssay (NCI).

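Assay format: 96-well plates, 48-hour exposure. TGI marks complete inhibition of growth.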

Consider `CSC(=N/C=C/c1ccccc1)SC`, for which the TGI with NCI/ADR-RES ovarian, in the test on HCT-15 colon, in the test on COLO 205 colon, in the test on OVCAR-3 ovarian, in the test on U251 CNS and in the test with HT29 colon was above 100 µM throughout. The TGI in the test with UO-31 renal, in the test with SK-MEL-2 melanoma, in the test on HOP-92 NSCLC, in the test with RXF 393 renal, in the test with K-562 leukemia and in the test on OVCAR-8 ovarian was above 100 µM each time. In addition, the TGI with SR leukemia was above 100 µM.
In the case of `COc1cccc(-c2nc3ccccc3c(=O)[nH]2)c1`, the TGI with NCI/ADR-RES ovarian is 51.8 µM; in the test on HCT-15 colon it was 51.6 µM; in the test on COLO 205 colon, above 100 µM; in the test with OVCAR-3 ovarian, 42.7 µM; in the test on U251 CNS, 44.7 µM; with HT29 colon, 55.5 µM. Moreover, the TGI was 45.2 µM in the test on UO-31 renal; above 100 µM in the test with SK-MEL-2 melanoma; above 100 µM in the test with HOP-92 NSCLC; 56.6 µM in the test on RXF 393 renal; above 100 µM in the test with K-562 leukemia; above 100 µM in the test on OVCAR-8 ovarian. Moreover, the TGI in the test with SR leukemia was above 100 µM.
Turning to `O=C(Nc1ccccc1)OCCN=C1c2ccccc2C(Br)C(Br)c2ccccc21` (configuration not stated), the TGI in the test with NCI/ADR-RES ovarian is 19.4 µM; in the test on HCT-15 colon, above 24.2 µM; with COLO 205 colon, 13 µM; with OVCAR-3 ovarian it was 15.8 µM; in the test on U251 CNS, 16.5 µM; with HT29 colon it was 14.6 µM. Moreover, the TGI with UO-31 renal was 3.61 µM; in the test on SK-MEL-2 melanoma, above 31.6 µM; with HOP-92 NSCLC it was 16.1 µM; in the test on RXF 393 renal, 9.69 µM; in the test on K-562 leukemia, 7.03 µM; with OVCAR-8 ovarian, 13 µM. Besides, in the test with SR leukemia, the TGI worked out at 7.08 µM.
`O=[N+]([O-])C(=C(Cl)Cl)C(Cl)=C(Cl)Cl`: the TGI was 5.45 µM with NCI/ADR-RES ovarian; 0.908 µM with HCT-15 colon; 0.254 µM with COLO 205 colon; 2.24 µM with OVCAR-3 ovarian; 7.26 µM in the test on U251 CNS; 0.852 µM with HT29 colon. The TGI stood at 2.94 µM in the test on UO-31 renal; 3.24 µM in the test on SK-MEL-2 melanoma; 1.03 µM with HOP-92 NSCLC; 0.091 µM in the test with RXF 393 renal; 0.118 µM in the test with K-562 leukemia; 5.14 µM with OVCAR-8 ovarian. This compound also had a TGI in the test with SR leukemia above 100 µM.
In the case of `Cc1sc(Nc2ccc(Nc3nc(-c4ccccc4)c(C)s3)cc2)nc1-c1ccccc1`, the TGI is above 100 µM in the test with NCI/ADR-RES ovarian; above 100 µM in the test on HCT-15 colon; 42.1 µM in the test with COLO 205 colon; above 100 µM in the test with OVCAR-3 ovarian; 49.6 µM with U251 CNS; above 100 µM in the test with HT29 colon. The TGI is above 100 µM in the test on UO-31 renal; 76.4 µM with SK-MEL-2 melanoma; above 100 µM in the test with HOP-92 NSCLC; 81.5 µM in the test with RXF 393 renal; above 100 µM in the test on K-562 leukemia; above 100 µM with OVCAR-8 ovarian. This compound came in with a TGI with SR leukemia above 100 µM.
Consider `C=CCC1(O)CC(n2cc(C)c(=O)[nH]c2=O)OC1CO[Si](C)(C)C(C)(C)C` (configuration not stated), for which the TGI in the test with NCI/ADR-RES ovarian is above 100 µM; in the test on HCT-15 colon, above 100 µM; in the test with COLO 205 colon, 42.7 µM; in the test on OVCAR-3 ovarian, above 100 µM; in the test with U251 CNS, above 100 µM; in the test with HT29 colon it was above 100 µM. For the same compound, the TGI with UO-31 renal, with SK-MEL-2 melanoma, in the test with HOP-92 NSCLC, in the test with RXF 393 renal, in the test with K-562 leukemia and in the test on OVCAR-8 ovarian was above 100 µM throughout. Besides, the TGI in the test on SR leukemia is above 100 µM.
For `Nc1ncc(Br)c(NCC2(CO)CCC2)n1`, the TGI in the test on NCI/ADR-RES ovarian, with HCT-15 colon, with COLO 205 colon, in the test with OVCAR-3 ovarian, in the test with U251 CNS and with HT29 colon was above 100 µM each time. Moreover, the TGI in the test on UO-31 renal, with SK-MEL-2 melanoma, with HOP-92 NSCLC, with RXF 393 renal, with K-562 leukemia and with OVCAR-8 ovarian was above 100 µM throughout. The TGI in the test on SR leukemia was above 100 µM.
With `CC(C)(C)c1cc(C(=O)/C=C/c2c(Cl)cccc2Cl)cc(C(C)(C)C)c1O`, the TGI in the test with NCI/ADR-RES ovarian worked out at 77.9 µM; in the test on HCT-15 colon, 27.9 µM; with COLO 205 colon it was 32 µM; with OVCAR-3 ovarian it was 25.3 µM; in the test on U251 CNS, 24.5 µM; in the test on HT29 colon, 26.3 µM. The TGI was 28.1 µM in the test on UO-31 renal; 26.4 µM in the test on SK-MEL-2 melanoma; above 95.7 µM in the test on HOP-92 NSCLC; 14.9 µM in the test with RXF 393 renal; above 100 µM in the test with K-562 leukemia; above 100 µM with OVCAR-8 ovarian. This compound also returned a TGI with SR leukemia above 37 µM.
For `COc1ccccc1CCN1CCN(CCCc2ccccc2)CC1`, the TGI in the test with NCI/ADR-RES ovarian is above 100 µM; with HCT-15 colon, above 100 µM; in the test with COLO 205 colon, 76 µM; with OVCAR-3 ovarian, above 100 µM; with U251 CNS, above 100 µM; in the test on HT29 colon, above 100 µM. The TGI was above 100 µM with UO-31 renal; above 100 µM in the test on SK-MEL-2 melanoma; 23.2 µM with HOP-92 NSCLC; above 100 µM in the test with RXF 393 renal; above 100 µM with K-562 leukemia; above 100 µM in the test with OVCAR-8 ovarian. Further, in the test on SR leukemia, the TGI is above 100 µM.
